# Source: patent publication US9861712B2, “Preparation of extremely small and uniform sized, iron oxide-based paramagnetic or pseudo-paramagnetic nanoparticles and MRI T1 contrast agents using the same” (Hanwha Chemical Corporation, priority 2010, dated 2018)
# Test system: rats
# Assay: In vivo MR imaging (dynamic time-resolved MR angiography, 3d-FLASH) of blood vessels
# Protocol: Dynamic time-resolved MR angiography and 3d-FLASH images of rats were acquired using a wrist coil on a 3 T MRI scanner before and after the injection of 3 nm iron oxide nanoparticles capped by PO-PEG, prepared according to example 13 (dose: 2.5 mg Fe/kg). The pre-contrast images were subtracted from post-contrast images, and the resulting images were reconstructed using maximum intensity projection (MIP) protocol with OsriX (Version 3.8.1; 32 bit; OsiriX foundation, Geneva). Dynamic time-resolved MR angiography was obtained with an interpolated temporal resolution of 1.25 second and the following parameters: flip angle=20, ETL=1, TR=3.1 ms, TE=1.13 ms, field of view FOV=75×140 mm^2, matrix=256×106, slice thickness/gap=2.5 mm/0 mm, and NEX=1. The imaging parameters of 3d-FLASH are as follows: flip angle=25, ETL=1, TR=25 ms, TE=5.1 ms, field of view FOV=110×65 mm^2, matrix=256×169, slice thickness/gap=1.0 mm/0 mm, and NEX=2.
# MR imaging using the 3 nm nanoparticles capped by glucose 6-phosphate was performed according to example 16.
compound,measurement,setting,value
O=C([O-])CN1CCN(CC(=O)[O-])CCN([C@H](CO)[C@H](O)CO)CCN(CC(=O)[O-])CC1.[Gd+3] (racemic) [Gadovist],contrast effect of in vivo MR image immediately after the injection,immediately after the injection,high contrast effect
same,time in which the bright signal vanished,in vivo MR image after injection,2 min
same,blood half-life,in words,short blood half-life
